# Experimental data as given in patent US11505525B2, “Branched discrete PEG constructs” (Quanta BioDesign, Ltd., priority 2011, dated 2022).
# Experiments:
# implanted tumors = experiment: Fused CT/PET imaging of tumor-bearing nude mice with 124I-labelled CC49 Fab′ conjugates; assay type: in vivo
# Procedure: Fused PET/CT images of mice were taken of different antibody conjugates to determine their ability to localize implanted tumors (see Examples below). In particular, CC49 Fab′-S-NEM control was compared to CC49 Fab′-dPEG12-Tris(dPEG24 carboxyl)3, the CC49 Fab′ MoAb modified with one of the disclosed branched dPEGs containing terminal carboxyl groups.
# • 1. sterilized, de-pyrogenated glass reaction vessel coated with IODO-GEN™ (SOP 310.0) (5-10 ml serum vials or 13 mm×100 mm test tubes) • 2. sterile, pyrogen-free phosphate buffer, 0.1 M. pH 7.2 • 3. sterile, pyrogen-free phosphate buffered saline • 4. 1 Sephadex G-25M (PD-10 disposable) column with tip • 5. Iodine-124 medium concentration, high activity, sodium iodide for protein iodination in pH=9.5, concentration—100 mCi/ml (IBA Molecular, Dulles VA) • 6. protein to be radiolabeled • 7. 10 sterilized, de-pyrogenated glass test tubes—12×75 mm • 8. 1 sterile Millex-GV 0.22 micron, 13 mm low protein binding filter unit (Millipore—cat. no: SLGV0130S) • 9. microliter pipettes (Eppendorf) • 10. sterilized plastic tips for microliter pipette • 11. parafilm—2 cm.×2 cm. • 12. close calibrator • 13. fume hood • 14. dry and wet radioactive waste containers • 15. disposable gloves • 16. lead shielding and lead containers for reaction vessel and test tubes • 17.2-5 ml. sterile, pyrogen-free syringes with needles • 18.1-3.5 in. spinal needle. Procedure • (Note: the specific activity desired will determine the quantities of protein and Iodine-124 used below.) • I. Place the desired amount of protein into the IODO-GEN™ reaction vessel. • 2. Add the desired amount of iodine-124 into the IODO-GEN™ reaction vessel. • 3. Add 50 μl of 0.1M, 7.2 pH phosphate buffer solution to reaction vessel. • 4. Cover the reaction vessel with parafilm. • 5. Incubate reaction vessel for 20 minutes with occasional swirling. • 6. Place reaction vessel into dose calibrator to determine radioactivity added. • 7. Stop reaction by removing reaction mixture from reaction vessel and placing mixture onto gel bed of Sephadex G-25M column (this separates unbound Iodine-124). • 8. Allow mixture to elute through column. (Note: the iodinated protein is collected from the column after the void volume has been eluted—approximately 2 ml). • 9. Place 1 ml phosphate buffered saline onto gel bed of Sephadex G-25M column and allow to elute through column. • 10. Place 4 ml phosphate buffered saline onto gel bed of Sephadex G-25M column and allow to elute through column. (Note: begin to collect Iodinated protein if you have not done so already). • 11. Collect fractions of 10 drops of eluted iodinated protein—total of 10 fractions. • 12. Assay the 10 fractions using the dose calibrator. • 13. Collect the fractions, which have the highest radioactivity and pool them together in a sterile, pyrogen-free syringe. • 14. Assay syringe of the collected iodinated fractions. • 15. Filter radiolabeled protein using Millex-GV 0.22 micron low protein binding filter unit into a sterile pyrogen-free syringe. • 16. Assay syringe of the filtered radiolabeled protein. • 17. Remove a sample for quality assurance procedures. Description of Animals • a. Female nude mice background, 4-5 weeks in age, were used in this project. For every 7 animals injected with tumors, 4 will actually show tumors in the useful size range. • b. The nude mice will receive 6×10^6 cells subcutaneously in 0.1 mL volumes in order to initiate tumors. • c. Nude mice are received on a routine basis from commercial sources. The mouse colony is routinely surveyed for adventitious agents by serological and histopathological procedures. Upon arrival, the mice are conditioned for up to one week and then moved into an experimental protocol. • d. The anesthetized mice are injected subcutaneously or intradermally into the flank area. For this injection, the mouse is held by a fold in the skin at the back and a 25G needle inserted through the skin. […]
# GLP-1 receptor = details: cited from earlier work
# TAG-72 = experiment: Competition affinity assay of CC49-Fab′-branched dPEGs; assay type: binding; details: Fab′-NEM defined as 1.0; single aliquots
# Procedure: A competition assay was run with a series of CC49-Fab′-dPEGs. In this run, single aliquots of each compound were assayed. The affinity constant of Fab′-NEM is defined as 1.0. From the data, it is that clear that the Relative Affinity Constant, which is a measure of how well the Fab′ binds to its molecular target, is minimally impacted by conjugation to branched dPEG products.
# A competition assay was run with a series of CC49-Fab′-branched dPEGs. In this run, single aliquots of each compound were assayed. The affinity constant of Fab′-NEM is defined as 1.0, and the binding constants of the branched dPEG conjugates are as follows: […]
# [1] = mouse, in vivo
# Description: In a different study, PK data was taken on normal athymic mice injected with: mCC49 Fab′-dPEG12-Tris(dPEG12-Tris(m-dPEG11)3)3, mCC49 Fab′-dPEG12-Tris(dPEG24-acid)3, mCC49 Fab′-dPEG12-Tris(m-dPEG24)3, and mCC49 Fab′-dPEG12-Tris(dPEG12-acid)3.
# PK data was taken with additional normal female athymic mice as follows: […]
substance,measurement,setting,value
CC49 Fab′-S-MAL-dPEG12-Tris(-dPEG24-CO2H)3 [CC49 Fab′-dPEG12-Tris(dPEG24 acid)3],fused CT/PET image: tumors and background,implanted tumors; 5 hours post injection,good imaging of the tumors with some background evident
same,fused CT/PET image: tumors and background,implanted tumors; 24 hours post injection,the tumors were well imaged with continuing diminution of background
same,fused CT/PET image: tumors and background,implanted tumors; 48 hours post injection,virtually no background is evident
same,fused CT/PET image: tumors and background,implanted tumors; 72 hours post injection,virtually no background is evident
"two Exendin-4 molecules: ""two Exendin-4 molecules in a very congested branching format""; ""the bis-Exendin-4 without the large polymeric PEG""",increase in the binding,GLP-1 receptor; two Exendin-4 molecules in branching format,3.5 times
"Lys^27 Exendin-4 linear polymeric PEG 0.5 kD: ""the Lys^27 in the Exendin-4 is modified with linear polymeric PEGs of MW, 1, 2 and 5 kD""; approximately 37 times lower binding, printed ""0.5 kD""","binding of Lys^27-PEGylated Exendin-4, times lower",GLP-1 receptor,~37 times
CC49 Fab′-S-MAL-dPEG12-Tris(m-dPEG24)3 [CC49 Fab′-dPEG12-Tris(m-dPEG24)3],fused CT/PET image: tumors and background,implanted tumors; 24 hours post injection,little background
same,fused CT/PET image: tumors and background,implanted tumors; 72 hours post injection,little background
"Lys^27 Exendin-4 linear polymeric PEG 1 kD: ""the Lys^27 in the Exendin-4 is modified with linear polymeric PEGs of MW, 1, 2 and 5 kD""; binding almost the same for 1 kD","binding of Lys^27-PEGylated Exendin-4, times lower",GLP-1 receptor,almost the same
"20 kD polymer PEG attached with two Exendin-4 molecules: ""the 20 kD polymer PEG attached with two Exendin-4 molecules""; binding reduced approximately 67 times by the ""shielding effect"" of the linear PEG",reduction of binding relative to bis-Exendin-4 without the polymeric PEG,GLP-1 receptor,approximately 67 times
CC49 Fab′-S-MAL-dPEG12-Tris(-dPEG12-Tris(m-dPEG11)3)3,Relative Affinity Constant (Ka),TAG-72,0.4
CC49 Fab′-S-MAL-dPEG12-Tris(-dPEG12-CO2H)3 [CC49 Fab′-dPEG12-Tris(dPEG12 acid)3 (B)],Relative Affinity Constant (Ka),TAG-72,0.3
"Lys^27 Exendin-4 linear polymeric PEG 2 kD: ""the Lys^27 in the Exendin-4 is modified with linear polymeric PEGs of MW, 1, 2 and 5 kD""; approximately 12 times lower binding","binding of Lys^27-PEGylated Exendin-4, times lower",GLP-1 receptor,approximately 12 times
m CC49 Fab′-dPEG12-Tris(dPEG12-Tris(m-dPEG11)3)3 [Fab-dPEG-D],clearance over time,[1],least rapid clearance
